Test results from patent US9409952B2, “Peptide-compound cyclization method” (Chugai Seiyaku Kabushiki Kaisha, priority 2011, dated 2016).
Positions of bridges follow the written chain, without caps; N, C: chain ends. Non-standard residues stand in square brackets, D forms with d. Residues, ends and D or L forms follow the SMILES beside them. *: point of attachment. NMePhe(3-Cl) = CN[C@@H](Cc1cccc(Cl)c1)C(=O)O; NMeF = CN[C@@H](Cc1ccccc1)C(=O)O; NMeL = CN[C@@H](CC(C)C)C(=O)O; NMeA = CN[C@@H](C)C(=O)O; Piperidide = C1CCN(*)CC1; Sar = CNCC(=O)O

Columns and labels:
[1] = Metabolic stability in human hepatic microsome; assay type: in vitro ADME; details: microsomes, pH 7.4; human hepatic microsome, NADPH(+); read-out: CL NADPH(+)
[2] = PAMPA (parallel artificial membrane permeability assay); assay type: in vitro ADME; details: membrane permeation rate (Pe), 50 mM MOPSO buffer pH 6.5 with 5.0% glycocholic acid, 37° C., 18 hours
Summary of the method: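 Artificial membrane was 10% (w/v) egg lecithin plus 0.5% (w/v) cholesterol in dodecane on a PVDF filter. A 10 mM DMSO stock was added at 0.5% (v/v) to donor buffer (50 mM MOPSO, pH 6.5, 5.0% glycocholic acid). After 18 h at 37 °C, LC/MS or LC/UV gave donor and acceptor levels for Pe.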

Row | Compound | microsomal CLint at 1 uM [1] | iPAMPA Pe [2] | Papp at 18 hours, 50 µM ([2]; PAMPA, read-out: iPAMPA Pe)
1 | CC[C@H](C)[C@H](NC(=O)[C@H](CC(C)C)N(C)C(=O)[C@H](C)N(C)C(=O)[C@@H](NC(=O)[C@H](CC(C)C)N(C)C(=O)[C@@H]1CC(=O)N[C@H](C(C)C)C(=O)N(C)[C@@H](C)C(=O)N(C)[C@@H](Cc2cccc(Cl)c2)C(=O)N(C)[C@@H](CC(C)C)C(=O)N[C@@H]([C@@H](C)O)C(=O)N(C)[C@@H](CC(C)C)C(=O)N1)[C@@H](C)CC)C(=O)N1CCCCC1 [DP-911] ([dV][NMeA][NMePhe(3-Cl)][NMeL]T[NMeL]D[NMeL]I[NMeA][NMeL]I-Piperidide; lactam N-7) | 152 µL/min/mg | 1.0E−07 | –
2 | CC[C@H](C)[C@H](NC(=O)CN(C)C(=O)[C@H](Cc1ccccc1)N(C)C(=O)[C@H](CC(C)C)N(C)C(=O)[C@@H](NC(=O)[C@@H]1CC(=O)N(C)[C@@H](C)C(=O)N[C@@H](CC(C)C)C(=O)N(C)[C@@H](CC(C)C)C(=O)N(C)[C@@H](C)C(=O)N(C)[C@@H](Cc2cccc(Cl)c2)C(=O)N[C@@H]([C@@H](C)O)C(=O)N1)C(C)C)C(=O)N1CCCCC1 [DP-912] ([NMeA]L[NMeL][NMeA][NMePhe(3-Cl)]TDV[NMeL][NMeF][Sar]I-Piperidide; lactam N-7) | 8 µL/min/mg | – | 1.3 ×10⁻⁶ cm/s
3 | CC[C@H](C)[C@@H]1NC(=O)[C@H](C(C)C)NC(=O)[C@H](Cc2ccccc2)N(C)C(=O)[C@H](C(C)C)NC(=O)[C@H](CC(C)C)N(C)C(=O)[C@H](C)NC(=O)C[C@@H](C(=O)N(C)[C@@H](Cc2ccccc2)C(=O)N(C)[C@@H](CC(C)C)C(=O)N[C@H](C(=O)N(C)[C@@H](CC(C)C)C(=O)N[C@H](C(=O)N2CCCCC2)[C@@H](C)CC)[C@@H](C)O)NC1=O [DP-913] (A[NMeL]V[NMeF]VID[NMeF][NMeL]T[NMeL]I-Piperidide; lactam N-7) | 30 µL/min/mg | 1.0E−07 | –
4 | CC[C@H](C)[C@H](NC(=O)[C@H](CC(C)C)NC(=O)[C@H](CC(C)C)N(C)C(=O)[C@H](Cc1cccc(Cl)c1)N(C)C(=O)[C@@H](NC(=O)[C@@H]1CC(=O)N[C@@H](Cc2ccccc2)C(=O)N[C@@H]([C@@H](C)O)C(=O)N[C@@H](CC(C)C)C(=O)N(C)[C@@H](CC(C)C)C(=O)N(C)[C@@H](C)C(=O)N(C)[C@@H](CC(C)C)C(=O)N1)[C@@H](C)CC)C(=O)N1CCCCC1 [DP-914] (FTL[NMeL][NMeA][NMeL]DI[NMePhe(3-Cl)][NMeL]LI-Piperidide; lactam N-7) | 29 µL/min/mg | 1.0E−07 | –
5 | CC[C@H](C)[C@H](NC(=O)[C@H](Cc1ccccc1)N(C)C(=O)[C@H](Cc1cccc(Cl)c1)N(C)C(=O)[C@H](C)N(C)C(=O)[C@@H]1CCCN1C(=O)[C@@H]1CC(=O)N[C@@H](C)C(=O)N(C)[C@@H](CC(C)C)C(=O)N(C)[C@@H](Cc2ccccc2)C(=O)N[C@@H]([C@@H](C)O)C(=O)N(C)[C@@H](Cc2ccccc2)C(=O)N[C@@H](CC(C)C)C(=O)N1)C(=O)N1CCCCC1 [DP-915] (A[NMeL][NMeF]T[NMeF]LDP[NMeA][NMePhe(3-Cl)][NMeF]I-Piperidide; lactam N-7) | 89 µL/min/mg | 1.0E−07 | –
6 | CC[C@H](C)[C@H](NC(=O)[C@H](CC(C)C)N(C)C(=O)[C@H](CC(C)C)N(C)C(=O)[C@H](Cc1ccccc1)N(C)C(=O)[C@@H]1CC(=O)N[C@H](C(C)C)C(=O)N(C)[C@@H](Cc2cccc(Cl)c2)C(=O)N(C)[C@@H](C)C(=O)N(C)[C@@H](CC(C)C)C(=O)N[C@@H]([C@@H](C)O)C(=O)N(C)[C@@H](CC(C)C)C(=O)N1)C(=O)N1CCCCC1 [DP-916] ([dV][NMePhe(3-Cl)][NMeA][NMeL]T[NMeL]D[NMeF][NMeL][NMeL]I-Piperidide; lactam N-7) | 55 µL/min/mg | 1.0E−07 | –
7 | CC[C@H](C)[C@H](NC(=O)[C@H](Cc1ccccc1)NC(=O)[C@@H](NC(=O)[C@@H]1CC(=O)N[C@H](C)C(=O)N(C)[C@@H](CC(C)C)C(=O)N[C@@H]([C@@H](C)O)C(=O)N(C)[C@@H](CC(C)C)C(=O)N(C)[C@@H](Cc2ccccc2)C(=O)N(C)[C@@H](CC(C)C)C(=O)N1)C(C)C)C(=O)N[C@H](C(=O)N1CCCCC1)[C@@H](C)CC [DP-917] ([dA][NMeL]T[NMeL][NMeF][NMeL]DVFII-Piperidide; lactam N-7) | 177 µL/min/mg | 1.0E−07 | –
